Two substances from patent publication US7408026B1, “Synthesis of proteins by native chemical ligation” (The Scripps Research Institute, priority 1998, dated 2008) can be followed below.

The assay has as its system neutrophil elastase release. Put plainly: assay for neutrophil elastase release (titration). The format is cell-based. As to conditions: compared with conventionally synthesized molecule and native sequence IL-8. The source says:
Application of the native chemical ligation method to the total synthesis of a protein molecule was illustrated by the preparation of human interleukin 8 (IL-8). (M. Baggiolini, et al., FEBS Lett. (1989): vol. 307, p 97; I. Clark-Lewis, et al., J. Biol. Chem. (1994): vol. 269, p 16075 (1994); I. Clark-Lewis, Biochemistry (1991): vol. 30, p 3128; and K. Rajarathnam, et al., (1994): Biochemistry, (1994): vol. 29, p 1689.) The 72 amino acid polypeptide chain contains four Cys residues, which form two functionally critical disulfide bridges in the native protein molecule. The two unprotected synthetic peptide segments reacted cleanly to give the full length polypeptide chain in reduced form without further chemical manipulation (9). This successful ligation was particularly significant because the 33- and 39-residue IL-8 segments each contained two Cys residues, and together encompassed 18 of the 20 genetically encoded amino acids found in proteins. The purified product was folded and oxidized as previously described, to give IL-8 with a mass precisely 4 daltons less than that of the original ligation product, indicating the formation of two disulfide bonds. The properties of this folded product were identical to those of previously studied authentic IL-8 samples.

In the case of “[Ala33]IL-8: 72 amino acid human interleukin 8 analogue made by native chemical ligation of IL-8(1-33)αCOSBn and IL-8(34-72), then folded by air oxidation”, the “maximal response in neutrophil elastase release” value was “indistinguishable and identical to native sequence IL-8”.
The entry for “corresponding molecule obtained by conventional synthesis: [Ala33]IL-8 obtained by conventional synthesis, used as comparator” is “indistinguishable and identical to native sequence IL-8”.
